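Where inhibition never reached the appropriate level, the endpoint shown equals the highest concentration tested. Otherwise, values were interpolated linearly from a five-concentration, 48-hour dose response in 96-well plates. TGI denotes the concentration required for complete inhibition of growth.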 Where a SMILES comes first, the peptide text is derived from it. The star is where a group is joined. Boc = CC(C)(C)OC(=O)*
Key:
Experiment in all cases: inhibition of tumour cell growth, NCI panel, 48 h
KM20L2 colon = system: KM20L2 colon
HCC-2998 colon = system: HCC-2998 colon
COLO 205 colon = system: COLO 205 colon
U251 CNS = system: U251 CNS
XF 498 CNS = system: XF 498 CNS
NCI-H23 lung = system: NCI-H23 lung
MALME-3M melanoma = system: MALME-3M melanoma
DLD-1 colon = system: DLD-1 colon
DMS 114 small cell lung = system: DMS 114 small cell lung
LXFL 529 NSCLC = system: LXFL 529 NSCLC
OVCAR-3 ovarian = system: OVCAR-3 ovarian
NCI-H460 lung = system: NCI-H460 lung
HOP-18 NSCLC = system: HOP-18 NSCLC
SNB-78 CNS = system: SNB-78 CNS
RXF-631 renal = system: RXF-631 renal
DMS 273 small cell lung = system: DMS 273 small cell lung
M19-MEL melanoma = system: M19-MEL melanoma

Row | SMILES | TGI (KM20L2 colon) [µM] | TGI (HCC-2998 colon) [µM] | TGI (COLO 205 colon) [µM] | TGI (U251 CNS) [µM] | TGI (XF 498 CNS) [µM] | TGI (NCI-H23 lung) [µM] | TGI (MALME-3M melanoma) [µM] | TGI (DLD-1 colon) [µM] | TGI (DMS 114 small cell lung) [µM] | TGI (LXFL 529 NSCLC) [µM] | TGI (OVCAR-3 ovarian) [µM] | TGI (NCI-H460 lung) [µM] | TGI (HOP-18 NSCLC) [µM] | TGI (SNB-78 CNS) [µM] | TGI (RXF-631 renal) [µM] | TGI (DMS 273 small cell lung) [µM] | TGI (M19-MEL melanoma) [µM]
1 | O=C1NC(=O)C2C(=O)NC(=O)C1C2c1c(Cl)cccc1Cl (configuration not stated) | > 83.6 | > 100 | > 56.3 | > 100 | > 100 | > 100 | > 100 | > 60.8 | > 53.5 | > 100 | > 100 | > 58.2 | > 100 | > 100 | > 100 | > 57.5 | 
2 | CCn1c2ccccc2c2ccc3c(c21)C(=O)C=CC3=O |  | 38.5 | 24.1 | 31.7 | 12.9 | 51.1 | 22 | 14.9 | 21.7 | 3.56 | 26.6 | 45.5 | 23.2 | 57.5 |  | 33.8 | 25.8
3 | COc1ccc2c(c1)C(=O)C1CC(=O)CCC21 (configuration not stated) | > 100 | > 100 | > 100 | > 100 |  | > 100 | > 100 | > 100 | > 100 | > 100 | > 100 | > 100 | > 100 | > 100 | > 100 | > 100 | > 100
4 | Cc1[nH]c2ccccc2c1C(=O)CC1(O)C(=O)Nc2c(Cl)cc(Cl)cc21 (configuration not stated) |  | > 100 | 61.7 | > 100 | 32.8 | 44.5 | 36.1 | > 100 | 44.9 | 30.8 | 44 | > 100 | 85.6 | > 100 | > 100 | > 100 | 24.6
5 | CC(=O)NC(CCCNC(=O)N(CCCl)N=O)C(=O)NCc1ccccc1 (configuration not stated) | > 100 | > 100 | > 100 | > 100 | > 100 | > 100 | > 100 | > 100 | > 100 | > 100 | > 100 | > 100 | > 100 |  |  | > 100 | > 100
6 | O=C1OC(Cc2ccccc2)(N2CCCC2=O)C1c1ccccc1 (configuration not stated) | > 100 |  | > 100 | > 100 | 88.5 | > 100 | > 100 | > 100 | 81 | > 100 | > 100 | > 100 |  | > 100 |  |  | > 100
7 | CC(C)(C)OC(=O)NC(Cc1ccc(O)cc1)C(=O)N1CCCC1C(=O)O (stereo not drawn) (Boc-Tyr-Pro-OH; configuration not given here) | > 100 | > 100 | > 100 | > 100 | > 100 | > 100 | > 100 | > 100 | > 100 | > 100 | > 100 | > 100 | > 100 | > 100 | > 100 | > 100 | > 100
8 | COc1cccc(NC(=O)CSc2nnc(-c3ccc(NC(C)=O)cc3)o2)c1 | > 100 |  | > 100 | > 100 |  | > 100 | > 100 | > 100 | > 100 | > 100 | > 100 | > 100 | > 100 | > 100 |  | > 100 | > 100
9 | CN(N=O)C(=O)ON1C(=O)CCC1=O | > 100 | > 100 |  |  |  | > 100 | > 100 | > 100 | > 100 | > 100 | > 100 | > 100 | > 100 | > 100 |  | > 100 | > 100
10 | Clc1ccc(Nc2nc3ccccc3nc2-c2cccs2)cc1Cl | > 100 | > 100 | > 100 |  | > 100 | > 100 | > 100 | > 100 |  | > 100 | > 100 | > 100 | > 100 | > 100 | > 100 | > 100 | > 100
11 | C/C=C1\CN2CCc3c([nH]c4ccccc34)C2CC1C(=O)OC (configuration not stated) | > 322 | > 322 | > 322 | > 322 | > 322 | > 322 | > 322 | > 322 |  | > 322 | > 322 | > 322 |  |  |  | > 322 | 
12 | COc1cccc(OC)c1C(=O)OCc1ccccc1 | > 100 |  | > 100 | > 100 | > 100 | > 100 |  | > 100 | > 100 | > 100 | > 100 | > 100 |  |  |  |  | > 100
13 | CC1(C)OC(=O)C(C#N)=C1/C=C/c1coc2ccc(Cl)cc2c1=O | > 100 | > 100 | > 100 | > 100 |  | 52 | 66.1 | 98 | > 100 | > 100 | 46.2 | 43.8 |  | > 100 | > 100 | > 100 | > 100
14 | CC(=O)CN(Cc1cc(C)c2c(c1)c1ccccc1n2Cc1ccccc1)S(=O)(=O)c1ccc(C)cc1 |  | > 100 | > 100 |  | > 100 | > 100 | > 100 | > 100 | > 100 | > 100 | > 100 |  | > 100 | > 100 | > 100 | > 100 | > 100
15 | C[N+](C)(C)CCc1ccccc1 | > 100 | > 100 | > 100 | > 100 | > 100 | > 100 | > 100 | > 100 | > 100 | > 100 | > 100 | > 100 |  | > 100 | > 100 | > 100 | > 100
16 | CCCP1(=O)C=C(C)C(=C(Cl)Cl)C(C)=C1 (configuration not stated) | 47.1 | 92.4 | > 100 | > 100 |  | 85.5 | > 100 | > 100 | > 100 | > 100 | > 100 | > 100 | > 100 | > 100 |  |  | > 100
17 | O=C1CCCN1C(=O)CS(=O)(=O)c1ccccc1 |  | > 100 | > 100 | > 100 |  | > 100 | > 100 |  |  |  | > 100 | > 100 |  |  |  |  | 
18 | COC(=O)c1onc(-c2c(OC)cc(OC)cc2OC)c1C(=O)OC | > 100 | > 100 | > 100 | > 100 | > 100 | > 100 | > 100 | > 100 | > 100 | > 100 | > 100 | > 100 | > 100 | > 100 |  | > 100 | > 100
19 | COc1c(Br)cc2c(c1OC)C(Br)CCC(Br)(Br)C2=O (configuration not stated) |  | 16.6 | 4.1 | 5.91 |  | 3.71 | 10.8 |  |  |  | 2.91 | 8.92 |  |  |  |  | 
20 | CCOC(=O)C1C(c2ccc3c(c2)OCO3)c2c([nH][nH]c2=O)CC1(C)O (configuration not stated) |  | > 100 | > 100 | > 100 |  | > 100 | > 100 |  |  |  | > 100 | > 100 |  |  |  |  | 
21 | c1ccc2c(c1)C1CCCCCC21N1CCOCC1 (configuration not stated) | > 100 | > 100 | > 100 | > 100 |  | > 100 |  | > 100 | > 100 | > 100 | > 100 | > 100 |  | > 100 |  | > 100 | > 100
22 | COc1ccc(C(=O)/C=C/c2ccc(O)c(O)c2)c(OC)c1 |  | 3.4 | 28.8 | 16.6 |  | 18.3 | 21.8 |  |  |  | 2.66 | 15.9 |  |  |  |  | 
23 | O=C1OCC2OC(=O)c3cc(O)c(O)c(O)c3-c3c(O)c(O)c(O)c4c3C(=O)OC(C2OC(=O)c2cc(O)c(O)c(O)c2-c2c1cc(O)c(O)c2O)C1OC(=O)c2c-4c(O)c(O)c(O)c2[C@@H]1C(O)C(O)C(O)C(O)CO (some centres not stated) |  | 64.2 | 30.4 | 48.7 |  | 43.5 | 38.9 |  |  |  | 80.6 | 39.5 |  |  |  |  | 
24 | O=C(O)c1ccc(C2COc3ccc(Cl)cc3C2)cc1 (configuration not stated) | > 100 | > 100 | > 100 | > 100 | > 100 | > 100 | > 100 | > 100 | > 100 | > 100 | > 100 | > 100 | > 100 | > 100 |  | > 100 | > 100

Reference: PubChem BioAssay (NCI)
